Literature values, collected in patent US20090105632A1 (priority 2007, published 2009).

Assays:
[1] = oral route, metabolized by the liver
[2] = 10 mM citrate buffer at pH 5
[3] = tested on: Parkinson's disease; settings: lisuride administration at about 1.1 mg/day

CCN(CC)C(=O)N[C@H]1C=C2c3cccc4[nH]cc(c34)C[C@H]2N(C)C1 [lisuride, N′-[(8α)-9,10-didehydro-6-methylergolin-8-yl]-N,N-diethylurea]
bioavailability [1]: about 25% | solubility [2]: about 1.8 mg/ml | antiparkinsonian response [3]: equal to that achieved with doses of levopoda monotherapy of 668 mg/day | pKa: about 8
